Test results reported in article PMC7026418, “The kinase polypharmacology landscape of clinical PARP inhibitors” (Scientific Reports, 2020).
Read-outs that look alike come from different tables or passages of the source. Blank lines part the entries; values can stand above or below the compound they belong to.

How the values were obtained:
Experiment in all cases: biochemical
Set-up in all cases: DiscoveRx KINOMEscan active site-directed competition binding; percent of control kinase bound to immobilised ligand
CDK9 = CDK9 (Homo sapiens, UniProt P50750)
DAPK1 = DAPK1 (Homo sapiens, UniProt P53355)
FLT3(D835V) = biological target: T1, FLT3(D835V) (Homo sapiens, UniProt P36888, D835V)
T1 sequence (P36888 1-993 D835V): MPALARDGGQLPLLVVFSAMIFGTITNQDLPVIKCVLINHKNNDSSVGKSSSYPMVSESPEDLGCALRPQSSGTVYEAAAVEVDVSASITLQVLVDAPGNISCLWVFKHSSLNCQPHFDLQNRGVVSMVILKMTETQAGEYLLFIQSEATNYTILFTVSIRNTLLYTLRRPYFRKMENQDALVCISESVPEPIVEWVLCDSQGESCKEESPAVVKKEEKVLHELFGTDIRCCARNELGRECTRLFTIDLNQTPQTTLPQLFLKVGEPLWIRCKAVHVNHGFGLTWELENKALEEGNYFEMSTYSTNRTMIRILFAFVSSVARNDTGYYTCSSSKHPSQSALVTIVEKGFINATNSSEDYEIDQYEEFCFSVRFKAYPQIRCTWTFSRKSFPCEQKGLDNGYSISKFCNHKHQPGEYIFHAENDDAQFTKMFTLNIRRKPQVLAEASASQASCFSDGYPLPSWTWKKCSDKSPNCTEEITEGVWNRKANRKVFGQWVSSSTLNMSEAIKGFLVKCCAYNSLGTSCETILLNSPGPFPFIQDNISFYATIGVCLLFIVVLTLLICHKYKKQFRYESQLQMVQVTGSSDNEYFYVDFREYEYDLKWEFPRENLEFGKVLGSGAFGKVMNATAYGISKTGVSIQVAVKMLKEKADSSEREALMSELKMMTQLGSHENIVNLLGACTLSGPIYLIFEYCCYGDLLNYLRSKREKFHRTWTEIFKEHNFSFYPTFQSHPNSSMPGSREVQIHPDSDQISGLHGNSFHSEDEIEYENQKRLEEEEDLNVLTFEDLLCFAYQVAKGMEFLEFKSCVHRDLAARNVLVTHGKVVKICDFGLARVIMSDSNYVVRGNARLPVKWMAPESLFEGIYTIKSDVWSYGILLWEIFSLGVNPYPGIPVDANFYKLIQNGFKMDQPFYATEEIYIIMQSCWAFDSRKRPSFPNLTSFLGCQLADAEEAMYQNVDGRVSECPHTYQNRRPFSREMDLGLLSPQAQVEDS

FLT4 = FLT4 (Homo sapiens, UniProt P35916)
MAP3K15 = biological target: T2, MAP3K15 (Homo sapiens, UniProt Q6ZN16)
T2 sequence (Q6ZN16 1-1313): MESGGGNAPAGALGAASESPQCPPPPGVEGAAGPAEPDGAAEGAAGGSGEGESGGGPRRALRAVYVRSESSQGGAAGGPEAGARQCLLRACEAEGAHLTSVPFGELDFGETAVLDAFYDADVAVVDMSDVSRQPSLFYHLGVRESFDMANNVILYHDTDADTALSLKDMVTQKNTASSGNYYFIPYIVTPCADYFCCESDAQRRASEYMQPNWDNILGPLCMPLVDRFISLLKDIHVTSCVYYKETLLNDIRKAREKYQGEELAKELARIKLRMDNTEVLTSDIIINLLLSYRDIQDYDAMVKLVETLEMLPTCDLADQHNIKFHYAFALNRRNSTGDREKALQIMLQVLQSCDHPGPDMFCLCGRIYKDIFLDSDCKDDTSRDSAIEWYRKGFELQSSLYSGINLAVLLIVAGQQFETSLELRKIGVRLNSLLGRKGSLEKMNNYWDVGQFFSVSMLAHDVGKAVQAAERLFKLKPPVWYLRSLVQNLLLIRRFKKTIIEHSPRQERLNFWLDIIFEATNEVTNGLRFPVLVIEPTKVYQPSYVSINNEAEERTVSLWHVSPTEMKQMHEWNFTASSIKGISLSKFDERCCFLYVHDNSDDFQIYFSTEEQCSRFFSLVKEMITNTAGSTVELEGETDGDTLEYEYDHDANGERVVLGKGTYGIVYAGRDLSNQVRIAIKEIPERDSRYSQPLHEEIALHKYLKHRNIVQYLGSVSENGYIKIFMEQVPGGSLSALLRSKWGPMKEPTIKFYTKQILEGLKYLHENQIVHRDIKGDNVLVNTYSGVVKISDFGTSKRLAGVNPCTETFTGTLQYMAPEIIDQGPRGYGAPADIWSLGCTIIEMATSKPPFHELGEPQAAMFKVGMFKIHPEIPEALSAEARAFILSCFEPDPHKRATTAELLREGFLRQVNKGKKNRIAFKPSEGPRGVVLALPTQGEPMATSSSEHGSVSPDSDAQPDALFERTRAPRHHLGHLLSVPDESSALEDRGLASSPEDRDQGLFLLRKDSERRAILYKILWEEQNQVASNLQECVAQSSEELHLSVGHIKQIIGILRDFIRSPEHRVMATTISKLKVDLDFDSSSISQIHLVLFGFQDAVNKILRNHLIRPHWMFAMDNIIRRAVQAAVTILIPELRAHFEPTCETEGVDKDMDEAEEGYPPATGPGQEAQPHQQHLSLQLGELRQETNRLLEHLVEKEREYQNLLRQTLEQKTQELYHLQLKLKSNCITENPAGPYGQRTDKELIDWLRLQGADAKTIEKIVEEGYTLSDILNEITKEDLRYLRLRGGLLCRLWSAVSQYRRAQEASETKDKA

RAF1 = RAF1 (Homo sapiens, UniProt P04049)
[1] = read-out: Niraparib (MK-4827) / %Ctrl @ 10000nM
[2] = read-out: Rucaparib / %Ctrl @ 10000nM, binding competition, % of control
[3] = read-out: Olaparib / %Ctrl @ 10000nM
[4] = read-out: Talazoparib (BMN 673) / %Ctrl @ 10000nM

Chain of CDK9 (P50750 whole entry): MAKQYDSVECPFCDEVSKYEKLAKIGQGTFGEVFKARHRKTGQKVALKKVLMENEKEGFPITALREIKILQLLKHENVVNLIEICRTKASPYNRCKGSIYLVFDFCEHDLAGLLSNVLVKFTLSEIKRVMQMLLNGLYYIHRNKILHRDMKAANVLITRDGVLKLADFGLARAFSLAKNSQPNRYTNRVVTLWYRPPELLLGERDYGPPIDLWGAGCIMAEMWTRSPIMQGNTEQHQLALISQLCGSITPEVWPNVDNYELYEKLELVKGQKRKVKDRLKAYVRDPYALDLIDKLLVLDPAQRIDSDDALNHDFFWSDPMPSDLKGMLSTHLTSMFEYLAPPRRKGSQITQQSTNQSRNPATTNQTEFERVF
Chain of RAF1 (P04049 whole entry): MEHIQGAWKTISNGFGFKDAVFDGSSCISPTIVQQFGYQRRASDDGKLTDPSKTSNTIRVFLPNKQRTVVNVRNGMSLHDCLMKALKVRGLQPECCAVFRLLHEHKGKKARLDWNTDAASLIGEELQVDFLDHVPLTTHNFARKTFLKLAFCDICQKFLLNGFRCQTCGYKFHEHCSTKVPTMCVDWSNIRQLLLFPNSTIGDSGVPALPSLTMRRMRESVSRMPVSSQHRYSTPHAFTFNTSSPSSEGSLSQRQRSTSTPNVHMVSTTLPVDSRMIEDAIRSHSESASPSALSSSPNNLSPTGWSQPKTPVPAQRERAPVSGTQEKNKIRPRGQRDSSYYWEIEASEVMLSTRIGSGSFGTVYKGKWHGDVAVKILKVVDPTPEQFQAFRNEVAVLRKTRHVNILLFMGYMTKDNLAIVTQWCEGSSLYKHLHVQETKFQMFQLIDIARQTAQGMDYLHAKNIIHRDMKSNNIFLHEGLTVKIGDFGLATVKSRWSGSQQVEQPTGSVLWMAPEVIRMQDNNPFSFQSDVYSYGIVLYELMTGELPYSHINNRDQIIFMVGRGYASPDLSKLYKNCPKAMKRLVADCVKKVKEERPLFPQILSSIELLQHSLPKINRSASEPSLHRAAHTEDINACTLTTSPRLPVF
Chain of FLT4 (P35916 whole entry): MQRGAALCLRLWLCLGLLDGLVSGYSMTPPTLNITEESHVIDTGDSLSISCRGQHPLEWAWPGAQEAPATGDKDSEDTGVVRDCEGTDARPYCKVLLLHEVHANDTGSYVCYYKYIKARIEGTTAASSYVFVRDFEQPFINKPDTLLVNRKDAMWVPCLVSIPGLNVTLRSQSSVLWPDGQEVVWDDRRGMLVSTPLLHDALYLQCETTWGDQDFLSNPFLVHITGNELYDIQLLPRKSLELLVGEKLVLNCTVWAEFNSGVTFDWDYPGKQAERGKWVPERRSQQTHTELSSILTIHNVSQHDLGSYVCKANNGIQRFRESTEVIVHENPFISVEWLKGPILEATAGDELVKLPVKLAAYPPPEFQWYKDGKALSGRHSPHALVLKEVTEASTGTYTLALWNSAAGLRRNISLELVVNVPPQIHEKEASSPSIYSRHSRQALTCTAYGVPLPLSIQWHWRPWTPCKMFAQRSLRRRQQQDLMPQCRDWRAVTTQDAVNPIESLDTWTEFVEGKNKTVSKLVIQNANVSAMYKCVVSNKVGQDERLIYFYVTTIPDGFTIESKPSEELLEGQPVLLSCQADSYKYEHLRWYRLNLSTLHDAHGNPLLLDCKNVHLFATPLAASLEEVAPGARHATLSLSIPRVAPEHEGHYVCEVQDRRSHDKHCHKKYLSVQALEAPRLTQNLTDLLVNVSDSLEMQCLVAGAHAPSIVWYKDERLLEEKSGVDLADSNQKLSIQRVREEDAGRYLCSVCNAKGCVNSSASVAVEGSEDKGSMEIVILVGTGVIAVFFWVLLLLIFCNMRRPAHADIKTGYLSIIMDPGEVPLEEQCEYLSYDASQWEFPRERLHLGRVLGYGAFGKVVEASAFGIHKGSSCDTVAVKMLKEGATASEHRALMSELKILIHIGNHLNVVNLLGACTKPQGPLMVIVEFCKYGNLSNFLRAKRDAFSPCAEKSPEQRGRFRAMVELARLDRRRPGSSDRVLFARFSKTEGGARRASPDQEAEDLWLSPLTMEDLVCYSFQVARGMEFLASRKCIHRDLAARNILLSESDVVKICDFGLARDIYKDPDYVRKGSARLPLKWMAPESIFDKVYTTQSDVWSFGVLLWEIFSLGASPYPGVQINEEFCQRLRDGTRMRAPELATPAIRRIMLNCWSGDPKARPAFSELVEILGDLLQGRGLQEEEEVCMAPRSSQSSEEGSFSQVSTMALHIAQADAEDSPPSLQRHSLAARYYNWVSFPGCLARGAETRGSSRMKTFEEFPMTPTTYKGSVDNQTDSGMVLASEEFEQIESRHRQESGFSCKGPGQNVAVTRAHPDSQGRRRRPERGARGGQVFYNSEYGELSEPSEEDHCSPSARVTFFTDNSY
Chain of DAPK1 (P53355 whole entry): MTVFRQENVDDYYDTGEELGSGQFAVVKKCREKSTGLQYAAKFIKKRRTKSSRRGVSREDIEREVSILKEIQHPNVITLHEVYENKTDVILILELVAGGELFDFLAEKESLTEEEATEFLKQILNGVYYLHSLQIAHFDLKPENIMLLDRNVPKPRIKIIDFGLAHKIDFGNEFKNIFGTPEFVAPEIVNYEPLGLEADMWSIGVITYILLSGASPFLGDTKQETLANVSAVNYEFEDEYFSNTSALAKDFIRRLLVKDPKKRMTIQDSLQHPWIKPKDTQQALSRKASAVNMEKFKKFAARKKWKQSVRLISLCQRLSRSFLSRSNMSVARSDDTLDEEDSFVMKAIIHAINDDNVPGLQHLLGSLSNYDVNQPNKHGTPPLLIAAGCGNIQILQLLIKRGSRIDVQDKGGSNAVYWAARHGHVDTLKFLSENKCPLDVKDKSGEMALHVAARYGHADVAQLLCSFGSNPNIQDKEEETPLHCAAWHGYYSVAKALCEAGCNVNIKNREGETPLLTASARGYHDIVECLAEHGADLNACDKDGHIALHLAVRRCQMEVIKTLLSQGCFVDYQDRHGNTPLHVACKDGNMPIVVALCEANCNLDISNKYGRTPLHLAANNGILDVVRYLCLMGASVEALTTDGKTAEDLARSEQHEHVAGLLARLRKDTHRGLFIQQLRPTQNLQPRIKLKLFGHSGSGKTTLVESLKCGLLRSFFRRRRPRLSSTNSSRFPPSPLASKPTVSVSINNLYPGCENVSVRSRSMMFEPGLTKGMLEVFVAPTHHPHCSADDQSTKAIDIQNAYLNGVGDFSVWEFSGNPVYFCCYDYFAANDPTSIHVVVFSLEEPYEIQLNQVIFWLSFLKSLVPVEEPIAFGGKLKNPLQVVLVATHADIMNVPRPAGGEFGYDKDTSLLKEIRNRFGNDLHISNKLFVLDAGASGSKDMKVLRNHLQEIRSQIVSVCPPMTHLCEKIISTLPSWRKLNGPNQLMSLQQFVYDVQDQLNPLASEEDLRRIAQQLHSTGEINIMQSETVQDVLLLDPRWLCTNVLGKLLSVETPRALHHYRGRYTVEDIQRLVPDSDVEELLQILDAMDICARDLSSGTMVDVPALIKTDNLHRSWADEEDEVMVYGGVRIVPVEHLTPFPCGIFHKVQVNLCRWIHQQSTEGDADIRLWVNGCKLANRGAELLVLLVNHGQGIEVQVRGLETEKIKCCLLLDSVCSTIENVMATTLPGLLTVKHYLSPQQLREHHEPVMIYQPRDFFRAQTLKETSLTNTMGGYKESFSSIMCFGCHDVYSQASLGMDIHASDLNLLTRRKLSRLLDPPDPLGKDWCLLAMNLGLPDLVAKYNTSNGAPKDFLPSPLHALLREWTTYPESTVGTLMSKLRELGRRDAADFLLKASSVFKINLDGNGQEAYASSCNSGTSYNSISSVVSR

Structure (SMILES): NC(=O)c1cccc2cn(-c3ccc([C@@H]4CCCNC4)cc3)nc12 [Niraparib]
percent of control binding at 10 µM (CDK9; [1]): 100%
percent of control binding at 10 µM (DAPK1; [1]): 77%
percent of control binding at 10 µM (FLT3(D835V); [1]): 83%
percent of control binding at 10 µM (FLT4; [1]): 99%
percent of control binding at 10 µM (MAP3K15; [1]): 64%
percent of control binding at 10 µM (RAF1; [1]): 93%

percent of control binding at 10 µM (CDK9; [2]): 78%
percent of control binding at 10 µM (DAPK1; [2]): 29%
Rucaparib / %Ctrl @ 10000nM (FLT3(D835V); binding competition, % of control): 15%
percent of control binding at 10 µM (FLT4; [2]): 95%
percent of control binding at 10 µM (MAP3K15; [2]): 73%
percent of control binding at 10 µM (RAF1; [2]): 99%
Structure (SMILES): CNCc1ccc(-c2[nH]c3cc(F)cc4c3c2CCNC4=O)cc1 [Rucaparib]

percent of control binding at 10 µM (CDK9; [3]): 100%
percent of control binding at 10 µM (DAPK1; [3]): 87%
percent of control binding at 10 µM (FLT3(D835V); [3]): 100%
percent of control binding at 10 µM (FLT4; [3]): 97%
percent of control binding at 10 µM (MAP3K15; [3]): 100%
percent of control binding at 10 µM (RAF1; [3]): 89%
Structure (SMILES): O=C(c1cc(Cc2n[nH]c(=O)c3ccccc23)ccc1F)N1CCN(C(=O)C2CC2)CC1 [Olaparib]

percent of control binding at 10 µM (CDK9; [4]): 100%
percent of control binding at 10 µM (DAPK1; [4]): 89%
percent of control binding at 10 µM (FLT3(D835V); [4]): 100%
percent of control binding at 10 µM (FLT4; [4]): 93%
percent of control binding at 10 µM (MAP3K15; [4]): 100%
percent of control binding at 10 µM (RAF1; [4]): 90%
Structure (SMILES): Cn1ncnc1[C@H]1c2n[nH]c(=O)c3cc(F)cc(c23)N[C@@H]1c1ccc(F)cc1 [Talazoparib]
